One may read the IC50 as the point on the concentration scale where inhibition reaches its midpoint.

Counter-ions that a name gives are not always drawn.

The test system of experiment [1] is RS4;11 leukaemia tumour line. The experiment is described as follows: In vitro cytotoxicity (Microculture Tetrazolium Assay, 48 hours). The conditions noted are these: Homo sapiens, RS4;11 cells, 48 hours exposure, MTT, concentration that inhibits cell viability by 50%, read-out: IC50 (nM) MTT RS4. Type of experiment: cell-based. How it is done:
The cytotoxicity studies were carried out on the RS4;11 leukaemia tumour line.
The cells are distributed onto microplates and exposed to the test compounds for 48 hours.

A further experiment concerns the target Bcl-2 protein (Homo sapiens (Human), UniProt P10415). The experiment in a line: Inhibition of Bcl-2 by the fluorescence polarisation technique. The conditions noted are these: fluorescence polarisation test; concentration that inhibits fluorescence polarisation by 50%; read-out: IC50 (nM) Bcl-2 FP. Type of experiment: binding. As for the experimental part: The fluorescence polarisation tests were carried out on microplates (384 wells). […] After incubation for 2 hours, the fluorescence polarisation is measured.

Sequence of Bcl-2 protein (P10415 whole entry): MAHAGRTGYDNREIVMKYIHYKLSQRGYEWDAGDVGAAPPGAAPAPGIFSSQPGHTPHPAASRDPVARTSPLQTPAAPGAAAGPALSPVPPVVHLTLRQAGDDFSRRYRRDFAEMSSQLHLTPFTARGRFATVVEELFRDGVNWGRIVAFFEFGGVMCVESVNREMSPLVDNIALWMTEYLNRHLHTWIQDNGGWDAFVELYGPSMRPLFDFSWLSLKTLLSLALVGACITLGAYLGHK

Consider `O=C(c1cc(-c2cc(Cl)ccc2C(=O)N2Cc3ccccc3C[C@H]2CN2CCOCC2)n2c1CCCC2)N(c1ccccc1)c1ccc(O)cc1` [Example 20, 3-{5-Chloro-2-[((3S)-3-(4-morpholinylmethyl)-3,4-dihydro-2(1H)-isoquinolinyl)carbonyl]phenyl}-N-(4-hydroxyphenyl)-N-phenyl-5,6,7,8-tetrahydro-1-indolizine carboxamide hydrochloride], for which the IC50 amounted to 105 nM in experiment [1] and 35 nM at Bcl-2 protein.

In the case of `CN1CCN(C[C@@H]2Cc3ccccc3CN2C(=O)c2cc3c(cc2-c2cc(C(=O)N(c4ccc(O)cc4)c4ccc5c(ccn5C)c4)c4n2CCC4)OCO3)CC1` [Example 76, N-(4-Hydroxyphenyl)-N-(1-methyl-1H-indol-5-yl)-5-{6-[((3S)-3-[(4-methyl-1-piperazinyl)methyl]-3,4-dihydro-2(1H)-isoquinolinyl)carbonyl]-1,3-benzodioxol-5-yl}-2,3-dihydro-1H-pyrrolizine-7-carboxamide bis(hydrochloride)], the IC50 in experiment [1] is 49 nM; on Bcl-2 protein, 17 nM.

In the case of `O=C(c1cc(-c2cc3c(cc2C(=O)N2Cc4ccccc4C[C@H]2CN2CCOCC2)OCO3)n2c1CC(O)CC2)N(c1ccccc1)c1ccc(O)cc1` (stereo partly drawn) [Example 113, 7-Hydroxy-N-(4-hydroxyphenyl)-3-(6-{[(3S)-3-(morpholin-4-ylmethyl)-3,4-dihydroisoquinolin-2(1H)-yl]carbonyl}-1,3-benzodioxol-5-yl)-N-phenyl-5,6,7,8-tetrahydroindolizine-1-carboxamide hydrochloride], the IC50 was determined as 190 nM in experiment [1] and 16 nM at Bcl-2 protein.

Take `COc1ccc(C(=O)N2Cc3ccccc3C[C@H]2CN2CCOCC2)c(-c2cc(C(=O)N(c3ccccc3)c3ccc(O)cc3)c3n2CCCC3)c1` [Example 112, N-(4-Hydroxyphenyl)-3-(5-methoxy-2-{[(3S)-3-(morpholin-4-ylmethyl)-3,4-dihydroisoquinolin-2(1H)-yl]carbonyl}phenyl)-N-phenyl-5,6,7,8-tetrahydroindolizine-1-carboxamide hydrochloride]: the concentration for half-maximal inhibition (IC50) in experiment [1] worked out at 139 nM; on Bcl-2 protein it was 9 nM.

Consider `CN1CC(C)(C)c2cc(N(C(=O)c3cc(-c4cc(Cl)ccc4C(=O)N4Cc5ccccc5C[C@H]4CN4CCOCC4)n4c3CCCC4)c3ccc(O)cc3)ccc21` [Example 49, 3-{5-Chloro-2-[((3S)-3-(4-morpholinylmethyl)-3,4-dihydro-2(1H)-isoquinolinyl)carbonyl]phenyl}-N-(4-hydroxyphenyl)-N-(1,3,3-trimethyl-2,3-dihydro-1H-indol-5-yl)-5,6,7,8-tetrahydro-1-indolizine carboxamide], for which the values for the IC50 (in experiment [1]; at Bcl-2 protein) were 169 nM and 45 nM, respectively.

With `CN1CCCc2cc(N(C(=O)c3cc(-c4cc5c(cc4C(=O)N4Cc6ccccc6C[C@H]4CN4CCOCC4)OCCO5)n4c3CCCC4)c3ccc(O)cc3)ccc21` [Example 40, N-(4-Hydroxyphenyl)-N-(1-methyl-1,2,3,4-tetrahydro-6-quinolinyl)-3-{7-[((3S)-3-(4-morpholinylmethyl)-3,4-dihydro-2(1H)-isoquinolinyl)carbonyl]-2,3-dihydro-1,4-benzodioxin-6-yl}-5,6,7,8-tetrahydro-1-indolizine carboxamide hydrochloride], the IC50 in experiment [1] came to 32.2 nM; at Bcl-2 protein, 15 nM.

Regarding `Cn1ccc2cc(N(C(=O)c3cc(-c4cc5c(cc4C(=O)N4Cc6ccccc6C[C@H]4CN4CCOCC4)OCO5)n4c3CCC4)c3ccc(O)cc3)ccc21` [Example 96, N-(4-Hydroxyphenyl)-N-(1-methyl-1H-indol-5-yl)-5-(6-{[(3S)-3-(morpholin-4-ylmethyl)-3,4-dihydroisoquinolin-2(1H)-yl]carbonyl}-1,3-benzodioxol-5-yl)-2,3-dihydro-1H-pyrrolizine-7-carboxamide hydrochloride], the values for the IC50 (in experiment [1]; at Bcl-2 protein) were 58.8 nM and 11 nM, respectively.

For the compound `CN1CCN(C[C@@H]2Cc3ccccc3CN2C(=O)c2ccc(Cl)cc2-c2cc(C(=O)N(c3ccc(O)cc3)c3ccc4c(ccn4C)c3)c3n2CCC3)CC1` [Example 77, 5-{5-Chloro-2-[((3S)-3-[(4-methyl-1-piperazinyl)methyl]-3,4-dihydro-2(1H)-isoquinolinyl)carbonyl]phenyl}-N-(4-hydroxyphenyl)-N-(1-methyl-1H-indol-5-yl)-2,3-dihydro-1H-pyrrolizine-7-carboxamide bis(hydrochloride)], the IC50 stood at 70.4 nM in experiment [1] and 23 nM at Bcl-2 protein.

For the compound `Cn1ccc2cc(N(C(=O)c3cc(-c4cc(Cl)ccc4C(=O)N4Cc5ccccc5C[C@H]4CN4CCOCC4)n4c3CCCC4)c3ccc(O)c(F)c3)ccc21` [Example 55, 3-{5-Chloro-2-[((3S)-3-(4-morpholinylmethyl)-3,4-dihydro-2(1H)-isoquinolinyl)carbonyl]phenyl}-N-(3-fluoro-4-hydroxyphenyl)-N-(1-methyl-1H-indol-5-yl)-5,6,7,8-tetrahydro-1-indolizine carboxamide hydrochloride], the values for the IC50 (in experiment [1]; on Bcl-2 protein) were 19.4 nM and 34 nM, respectively.

`CN1CCN(C[C@@H]2Cc3ccccc3CN2C(=O)c2cc3c(cc2-c2cc(C(=O)N(c4ccccc4)c4ccc(O)cc4)c4n2CCCC4)OCO3)CC1=O` [Example 128, N-(4-Hydroxyphenyl)-3-(6-{[(3S)-3-[(4-methyl-3-oxopiperazin-1-yl)methyl]-3,4-dihydroisoquinolin-2(1H)-yl]carbonyl}-1,3-benzodioxol-5-yl)-N-phenyl-5,6,7,8-tetrahydroindolizine-1-carboxamide hydrochloride]: the IC50 in experiment [1] came to 63.4 nM; at Bcl-2 protein, 10 nM.

For the compound `O=C(c1cc(-c2cc(F)ccc2C(=O)N2Cc3ccccc3C[C@H]2CN2CCOCC2)n2c1COCC2)N(c1ccc(O)cc1)c1ccc(F)cc1` [Example 99, 6-(5-Fluoro-2-{[(3S)-3-(morpholin-4-ylmethyl)-3,4-dihydroisoquinolin-2(1H)-yl]carbonyl}phenyl)-N-(4-fluorophenyl)-N-(4-hydroxyphenyl)-3,4-dihydro-1H-pyrrolo[2,1-c][1,4]oxazine-8-carboxamide hydrochloride], the values for the IC50 (in experiment [1]; at Bcl-2 protein) were 213 nM and 25 nM, respectively.

Consider `CN1CCc2cc(N(C(=O)c3cc(-c4cc5c(cc4C(=O)N4Cc6ccccc6C[C@H]4CN4CCOCC4)OCO5)n4c3COCC4)c3ccc(O)cc3)ccc21` [Example 81, N-(4-Hydroxyphenyl)-N-(1-methyl-2,3-dihydro-1H-indol-5-yl)-6-{6-[((3S)-3-(4-morpholinylmethyl)-3,4-dihydro-2(1H)-isoquinolinyl)carbonyl]-1,3-benzodioxol-5-yl}-3,4-dihydro-1H-pyrrolo[2,1-c][1,4]oxazine-8-carboxamide hydrochloride], for which the values for the IC50 (in experiment [1]; on Bcl-2 protein) were 39.3 nM and 28 nM, respectively.

Consider `Cn1ccc2cc(N(C(=O)c3cc(-c4cc(Br)ccc4C(=O)N4Cc5ccccc5C[C@H]4CN4CCOCC4)n4c3CCCC4)c3ccc(O)cc3)ccc21` [Example 18, 3-{5-Bromo-2-[((3S)-3-(4-morpholinylmethyl)-3,4-dihydro-2(1H)-isoquinolinyl)carbonyl]phenyl}-N-(4-hydroxyphenyl)-N-(1-methyl-1H-indol-5-yl)-5,6,7,8-tetrahydro-1-indolizine carboxamide hydrochloride], for which the IC50 in experiment [1] was 24.9 nM; at Bcl-2 protein it was 32 nM.
